{"source": "patent US20130053435A1", "about": "“Methods of Treating Alcohol Intoxication, Alcohol Use Disorders and Alcohol Abuse Which Comprises the Administration of Dihydromyricetin” (priority 2011, published 2013)", "key": {"[1]": {"tested_on": "PTZ-induced seizures in rats", "experiment": "PTZ-induced seizures after EtOH withdrawal", "assay_type": "in vivo, rat", "settings": "for PTZ-induced seizure duration: FIG. 12C", "protocol": "Pentylenetetrazol (PTZ)-induced seizures were also measured in rats. […] PTZ dose used in this study (42 mg/kg in saline) was determined as the dose that induced seizures in 75% naïve rats. Briefly, after i.p. injection of PTZ, the time to onset and the duration of tonic-clonic seizures was determined as described previously. The researchers who conducted the animal behavior experiments were blind to treatment groups. Animals were used once only for any determination.\n48 hr after injection, rats were sub-divided into 3 groups to measure signs of EtOH withdrawal.\nAs described herein, hyperexcitability was assayed with PTZ-induced seizures duration (FIG. 12C). PTZ induced 0.9±0.2 min seizures in subjects of the vehicle group and 6.5±1.1 min seizures in subjects of the EtOH group."}, "GABAARs": {"tested_on": "GABAARs", "experiment": "Whole-cell patch-clamp, DGCs in hippocampal slices 48 hr after in vivo treatment", "assay_type": "cell-based, rat", "settings": "48 hr withdrawal", "protocol": "Transverse slices (400 μm) of dorsal hippocampus were obtained with a Vibratome (VT 100, Technical Products International, St. Louis, Mo.) and standard techniques known in the art. Slices were continuously perfused with artificial cerebrospinal fluid (ACSF). See Liang, J., et al. (2007) J Neurosci 27:12367-12377.\nWhole-cell patch-clamp recordings were obtained at 34±0.5° C. from cells located in the DG layer at a holding potential of −70 mV, during perfusion with artificial cerebrospinal fluid (ACSF, 125 mM NaCl, 2.5 mM KCl, 2 mM CaCl2, 2 mM MgCl2, 26 mM NaHCO3, and 10 mM D-glucose). The ACSF was continuously bubbled with 95% O2-5% CO2 to ensure adequate oxygenation of slices and a pH of 7.4. Patch electrodes were pulled from thin-wall borosilicate glass pipettes with resistances of 7.5-9 MΩ and were filled with pipette solution (i.e. 137 mM CsCl, 2 mM MgCl2, 1 mM CaCl2, 11 mM EGTA, 10 mM HEPES and 3 mM ATP, pH adjusted to 7.30 with CsOH). Signals were recorded in voltage-clamp mode with a […] amplifier (Molecular Devices, Sunnyvale, Calif.). Whole cell access resistances were in the range of <25 MΩ before electrical compensation by about 70%. During voltage-clamp recordings, access resistance was monitored by measuring the size of the capacitative transient in response to a 5 mV step command and the data were abandoned if changes >20% were encountered. At least 10 min was allowed for equilibration of the pipette solution with the intracellular milieu before commencing mIPSC recordings. Intracellular signal was low-pass filtered at 3 kHz and data were acquired with Digidata 1440A and software CLAMPEX 10 (Molecular Devices) at a sampling frequency of 20 kHz.\nPharmacologically-isolated GABAAR-mediated mIPSCs were recorded as previously described (Liang (2007) and Shen (2011)). […] Data were analyzed using the Clampfit (Version 9.0, Molecular Devices) and the MiniAnalysis Program (versions 6.0.7, Synaptosoft, Decatur, Ga.).\nThe MiniAnalysis program (Synaptosoft, Decatur, Ga.) was used to analyze mIPSCs. Itonic is the averaged baseline currents of a given recording period. Itonic amplitude was calculated as the difference between the holding currents measured before and after picrotoxin (100 μM) or bicuculline (10 μM). See Wei, W., et al. (2004) J Neurosci 24, 8379-8382; Liang (2007); and Shen (2011). Briefly, the recordings were low-pass filtered off-line (Clampfit software) at 2 kHz. The mIPSCs were detected (Mini Analysis Program, version 6.0.7) with threshold criteria of 8 pA amplitude and 20 pA*ms charge transfer. The frequency of mIPSCs was determined from all automatically detected events in a given 100 s recording period. For kinetic analysis, only single event mIPSCs with a stable baseline, sharp rising phase (10 to 90% rise time), and exponential decay were chosen during visual inspection of the recording trace. Double and multiple peak mIPSCs were excluded. At least 100 individual mIPSC events were recorded under each experimental condition. The mIPSC kinetics was obtained from analysis of the averaged chosen single events aligned with half rise time in each cell. Decay time constants were obtained by fitting a double exponential to the falling phase of the averaged mIPSCs. Itonic magnitudes were obtained from the averaged baseline current of a given recording period. Itonic amplitude was calculated as the difference between the holding currents measured before and after the application of picrotoxin (50 μM) or bicuculline (10 μM). See Liang J et al (2007); Shen (2011); Hamann (2002); and Mangan P S, et al. (2005) Mol Pharmacol 67(3):775-788. The investigator performing the recordings and mIPSC analysis was blind to the treatment (vehicle, EtOH, E+D, or D) that the rats received.\nAfter 48 hr withdrawal, whole-cell GABAAR-mediated currents were recorded on DGCs in hippocampal slices. In the vehicle group, bath application of EtOH (60 mM) enhanced Itonic from 28.8±3.1 to 62.1±3.3 pA (FIG. 13, panels A, G). […]"}, "GABAAR α4 subunit": {"tested_on": "GABAAR α4 subunit", "experiment": "Western blot of hippocampal tissue after 48 hr withdrawal", "assay_type": "in vivo, rat", "protocol": "Parallel Western blots from rat hippocampus were examined to determine whether EtOH induced changes in total protein of GABAAR α4 subunits. Hippocampal tissues from rats were lysed in RIPA-buffer containing 1% Triton X-100, 0.1% sodium dodecyl sulfate (SDS), 50 mM Na3PO4, 150 mM NaCl, 2 mM EDTA, 50 mM NaF, 10 mM sodium pyrophosphate, 1 mM sodium orthovanadate, 1 mM phenylmethylsulfonyl fluoride (PMSF) and Complete protease inhibitor cocktail (Roche). The lysate was centrifuged for 15 min (14,000×g, 4° C.) and the supernatant collected for Western blot analysis. Western blots were performed using rabbit anti-GABAAR α4 (aa 379-421) and mouse anti-β-actin (Sigma) followed by HRP-conjugated secondary antibodies. Bands were detected using ECL detection kit (Amersham) and analyzed by densitometric measurements using ImageQuant 5.2 (Molecular Dynamics). Bands were stripped with buffer containing 62.5 mM Tris-HCl, 100 mM β-mercaptoethanol and 2% SDS (pH 6.7) and reprobed several times. Protein concentrations were determined with BCA Protein Assay Kit (Pierce) according to the manufacturer instructions.\nThe total protein content of GABAAR α4 subunit in hippocampus 48 hr after the above 4 treatments was assayed."}}, "note": "Values joined by “and” are separate entries in the source; they are usually repeats but may differ in a detail not shown here. Equal values may be shown once."}
{"smiles": "O=C1c2c(O)cc(O)cc2O[C@H](c2cc(O)c(O)c(O)c2)[C@H]1O", "note": "[DHM, (2R,3R)-3,5,7-trihydroxy-2-(3,4,5-trihydroxyphenyl)-2,3-dihydrochromen-4-one]", "values": [{"measurement": "PTZ-seizure duration", "setting": "[1]; 24 hr after DHM 1 mg/kg i.p. alone", "result": "did not induce any significant or observable changes in seizure duration"}, {"measurement": "PTZ seizure incidence", "setting": "[1]; 24 hr withdrawal from DHM+EtOH", "result": 85, "unit": "%"}, {"measurement": "PTZ-seizure duration", "setting": "[1]; 24 hr withdrawal from DHM+EtOH (1 mg/kg+3 g/kg, i.p.), PTZ 42 mg/kg", "result": "0.9 ± 0.2", "unit": "min"}, {"measurement": "PTZ-induced seizure duration", "setting": "[1]; 48 hr withdrawal, EtOH+DHM group", "result": "1.7 ± 0.8", "unit": "min"}, {"measurement": "PTZ-induced seizure duration", "setting": "[1]; 48 hr, DHM group", "result": "0.6 ± 0.4", "unit": "min"}, {"measurement": "EtOH intoxication/withdrawal-induced increases in PTZ-induced seizure duration and incidence, female rats", "setting": "[1]; female rats, co-administration of DHM+EtOH", "result": "inhibits, reduces and/or prevents"}, {"measurement": "mIPSC area after acute EtOH (60 mM)", "setting": "GABAARs; EtOH+DHM group", "result": "0.78±0.02", "unit": "nC"}, {"measurement": "mIPSC area before acute EtOH", "setting": "GABAARs; EtOH+DHM group", "result": "0.70±0.03", "unit": "nC"}, {"measurement": "Itonic before acute EtOH", "setting": "GABAARs; rats treated with EtOH (5 g/kg) + DHM (1 mg/kg)", "result": "30.0±2.8 pA and 27.9±3.0 pA"}, {"measurement": "Itonic after acute EtOH (60 mM)", "setting": "GABAARs; rats treated with EtOH + DHM (1 mg/kg)", "result": "60.0±2.2 pA and 61.3±2.3 pA"}, {"measurement": "mIPSC increase by acute EtOH (60 mM)", "setting": "GABAARs; rats treated with EtOH + DHM", "result": "18.0±5.9", "unit": "%"}, {"measurement": "total α4 subunit level", "setting": "GABAAR α4 subunit; DHM group", "result": "88.3±10.3 % of control"}, {"measurement": "total α4-protein level", "setting": "GABAAR α4 subunit; EtOH+DHM group", "result": "93.0±21.0 % of control"}]}
